Tests used:
Format in all cases: in vivo
Puccinia triticina = test: Wheat brown rust (PUCCRT) disease control on wheat seedlings; settings: low volume application, 125.1 g/H; for PUCCRT 1DP, LV activity at 125.1 g/H (% Control rating): 1 Day Protectant; for PUCCRT 3DC, LV activity at 125.1 g/H (% Control rating): 3 Day Curative; for PUCCRT 1DP disease control rating, LV activity at 125.1 g/H: 1 day protectant; for PUCCRT 3DC disease control rating, LV activity at 125.1 g/H: 3 day curative
Cercospora beticola = test: Leaf spot of sugar beets (CERCBE) disease control; settings: 100 ppm; 1 Day Protectant; sugar beet
Description: All fungicides were evaluated using the aforementioned method for their activity vs. all target diseases, unless stated otherwise. Wheat leaf blotch and brown rust activity were also evaluated using track spray applications, in which case the fungicides were formulated as EC formulations, containing 0.1% Trycol 5941 in the spray solutions. Wheat plants (variety Yuma) were grown from seed in a greenhouse in 50% mineral soil/50% soil-less Metro mix until the first leaf was fully emerged, with 7-10 seedlings per pot. These plants were inoculated with an aqueous spore suspension of Zymoseptoria tritici either prior to or after fungicide treatments. After inoculation the plants were kept in 100% relative humidity (one day in a dark dew chamber followed by two to three days in a lighted dew chamber at 20° C.) to permit spores to germinate and infect the leaf. The plants were then transferred to a greenhouse set at 20° C. for disease to develop. When disease symptoms were fully expressed on the 1st leaves of untreated plants, infection levels were assessed on a scale of 0 to 100 percent disease severity. Percent disease control was calculated using the ratio of disease severity on treated plants relative to untreated plants. Example F: Evaluation of Fungicidal Activity: Leaf Spot of Sugar Beets (Cercospora beticola; Bayer Code CERCBE) Sugar beet plants (variety HH88) were grown in soil-less Metro mix and trimmed regularly to maintain a uniform plant size prior to test. Plants were inoculated with a spore suspension 24 hr after fungicide treatments. Inoculated plants were kept in a dew chamber at 22° C. for 48 hr then incubated in a greenhouse set at 24° C. under a clear plastic hood with bottom ventilation until disease symptoms were fully expressed. Fungicide formulation, application and disease assessment on the sprayed leaves followed the procedures as described in the Example A.

Phakopsora pachyrhizi = test: Asian soybean rust (PHAKPA) disease control; settings: 25 ppm; for PHAKPA disease control, 1DP: 1 Day Protectant; for PHAKPA disease control, 3DC: 3 Day Curative
Alternaria solani = test: Tomato early blight (ALTESO) disease control; set-up: key: A: > 80; B: ≤ 80; C: Not Tested; D: No Activity Observed in the Reported Assay; settings: 100 ppm, 1 Day Protectant
Description: All fungicides were evaluated using the aforementioned method for their activity vs. all target diseases, unless stated otherwise. Wheat leaf blotch and brown rust activity were also evaluated using track spray applications, in which case the fungicides were formulated as EC formulations, containing 0.1% Trycol 5941 in the spray solutions. Wheat plants (variety Yuma) were grown from seed in a greenhouse in 50% mineral soil/50% soil-less Metro mix until the first leaf was fully emerged, with 7-10 seedlings per pot. These plants were inoculated with an aqueous spore suspension of Zymoseptoria tritici either prior to or after fungicide treatments. After inoculation the plants were kept in 100% relative humidity (one day in a dark dew chamber followed by two to three days in a lighted dew chamber at 20° C.) to permit spores to germinate and infect the leaf. The plants were then transferred to a greenhouse set at 20° C. for disease to develop. When disease symptoms were fully expressed on the 1st leaves of untreated plants, infection levels were assessed on a scale of 0 to 100 percent disease severity. Percent disease control was calculated using the ratio of disease severity on treated plants relative to untreated plants. Example J: Evaluation of Fungicidal Activity: Tomato Early Blight (Alternaria solani; Bayer Code […]) Tomato plants (variety Outdoor Girl) were propagated in soil-less Metro mix, with each pot having one plant, and used when 12 to 14 days old. Test plants were inoculated with an aqueous spore suspension of Alternaria solani 24 hr after fungicide treatments. After inoculation the plants were kept in a dew room at 22° C. with 100% relative humidity for 48 h to permit spores to germinate and infect the leaf. The plants were then transferred to a growth room at 22° C. for disease to develop. Fungicide formulation, application and disease assessment on the sprayed leaves followed the procedures as described in the Example A.

Compound | PUCCRT 1DP, LV activity at 125.1 g/H (% Control rating) (Puccinia triticina) | PUCCRT 3DC, LV activity at 125.1 g/H (% Control rating) (Puccinia triticina) | CERCBE disease control, 1DP (Cercospora beticola) | PHAKPA disease control, 1DP (Phakopsora pachyrhizi) | PHAKPA disease control, 3DC (Phakopsora pachyrhizi) | ALTESO disease control, 1DP (Alternaria solani) | PUCCRT 1DP disease control rating, LV activity at 125.1 g/H (Puccinia triticina) | PUCCRT 3DC disease control rating, LV activity at 125.1 g/H (Puccinia triticina)
COc1ccnc(C(=O)N[C@@H](C)C(=O)O[C@@H](C)[C@H](Oc2ccccc2Cl)c2ccccc2)c1OC(C)=O [Cmpd 640] | A (> 80) | A (> 80) | A (> 80) | B (≤ 80) | B (≤ 80) | B (≤ 80) | – | –
CCC(CC)[C@@H](Oc1ccccc1)[C@H](C)OC(=O)[C@H](C)NC(=O)c1nccc(OC)c1OCOC(C)=O [Cmpd 477] | A (> 80) | A (> 80) | A (> 80) | A (> 80) | B (≤ 80) | B (≤ 80) | – | –
COc1ccnc(C(=O)N[C@@H](C)C(=O)O[C@@H](C)[C@H](Oc2cccc(Cl)c2)c2ccccc2)c1OCOC(C)=O [Cmpd 637] | A (> 80) | B (≤ 80) | B (≤ 80) | A (> 80) | B (≤ 80) | D | – | –
COc1ccnc(C(=O)N[C@@H](C)C(=O)O[C@@H](C)[C@H](Oc2ccccc2)c2ccccc2)c1OCOC(C)=O [Cmpd 500] | A (> 80) | A (> 80) | A (> 80) | B (≤ 80) | B (≤ 80) | B (≤ 80) | – | –
C=CC(C)C(Oc1ccccc1)C(C)OC(=O)C(C)NC(=O)c1nccc(OC)c1OCOC(C)=O (stereo not drawn) [Cmpd 694] | – | – | A (> 80) | A (> 80) | B (≤ 80) | B (≤ 80) | A (> 80) | A (> 80)
COc1ccnc(C(=O)N[C@@H](C)C(=O)O[C@@H](C)[C@H](Oc2cccc(F)c2)c2ccccc2)c1OCOC(C)=O [Cmpd 574] | A (> 80) | A (> 80) | A (> 80) | A (> 80) | B (≤ 80) | B (≤ 80) | – | –
COc1ccnc(C(=O)N[C@@H](C)C(=O)O[C@@H](C)[C@H](Oc2cccc(Cl)c2)C(C)C)c1OC(C)=O [Cmpd 566] | A (> 80) | A (> 80) | B (≤ 80) | A (> 80) | B (≤ 80) | B (≤ 80) | – | –
CCC[C@@H](Oc1ccccc1)[C@H](C)OC(=O)[C@H](C)NC(=O)c1nccc(OC)c1OCOC(C)=O [Cmpd 699] | – | – | A (> 80) | A (> 80) | B (≤ 80) | B (≤ 80) | A (> 80) | A (> 80)

Source: patent US20180000085A1, “USE OF PICOLINAMIDE COMPOUNDS WITH FUNGICIDAL ACTIVITY” (DOW AGROSCIENCES LLC, priority 2014, published 2018)
